Assay results as given in PubChem BioAssay (NCI).
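GI50 = concentration required for 50% inhibition of growth. At the TGI there is no net growth.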

Key:
Assay in all cases: DTP human tumour cell line panel, 384-well format
HOP-92 NSCLC = test system: HOP-92 NSCLC
BT-549 breast = test system: BT-549 breast
SNB-75 CNS = test system: SNB-75 CNS
HL-60(TB) leukemia = test system: HL-60(TB) leukemia
SF-539 CNS = test system: SF-539 CNS
HS 578T breast = test system: HS 578T breast
HOP-62 NSCLC = test system: HOP-62 NSCLC
SN12C renal = test system: SN12C renal
DU-145 prostate = test system: DU-145 prostate
EKVX NSCLC = test system: EKVX NSCLC
MALME-3M melanoma = test system: MALME-3M melanoma
HCC-2998 colon = test system: HCC-2998 colon
MDA-MB-231 breast = test system: MDA-MB-231 breast
TK-10 renal = test system: TK-10 renal
T-47D breast = test system: T-47D breast
SF-268 CNS = test system: SF-268 CNS
SW-620 colon = test system: SW-620 colon
NCI-H226 lung = test system: NCI-H226 lung
MDA-MB-468 breast = test system: MDA-MB-468 breast
UACC-62 melanoma = test system: UACC-62 melanoma
A498 renal = test system: A498 renal
OVCAR-3 ovarian = test system: OVCAR-3 ovarian
OVCAR-8 ovarian = test system: OVCAR-8 ovarian
CAKI-1 renal = test system: CAKI-1 renal
RXF 393 renal = test system: RXF 393 renal
ACHN renal = test system: ACHN renal
NCI-H322M lung = test system: NCI-H322M lung
HT29 colon = test system: HT29 colon
MOLT-4 leukemia = test system: MOLT-4 leukemia
SK-MEL-5 melanoma = test system: SK-MEL-5 melanoma
NCI-H522 lung = test system: NCI-H522 lung
PC-3 prostate = test system: PC-3 prostate
SR leukemia = test system: SR leukemia
OVCAR-4 ovarian = test system: OVCAR-4 ovarian
MCF7 breast = test system: MCF7 breast
U251 glioblastoma = test system: U251 glioblastoma
SK-OV-3 ovarian = test system: SK-OV-3 ovarian
HCT-15 colon = test system: HCT-15 colon
M14 melanoma = test system: M14 melanoma
MDA-MB-435 melanoma = test system: MDA-MB-435 melanoma
786-0 renal = test system: 786-0 renal
NCI/ADR-RES ovarian = test system: NCI/ADR-RES ovarian
NCI-H460 NSCLC = test system: NCI-H460 NSCLC
A549 NSCLC = test system: A549 NSCLC
OVCAR-5 ovarian = test system: OVCAR-5 ovarian
SF-295 CNS = test system: SF-295 CNS
UACC-257 melanoma = test system: UACC-257 melanoma
COLO 205 colon = test system: COLO 205 colon
SNB-19 CNS = test system: SNB-19 CNS
RPMI-8226 leukemia = test system: RPMI-8226 leukemia
NCI-H23 lung = test system: NCI-H23 lung
SK-MEL-2 melanoma = test system: SK-MEL-2 melanoma
SK-MEL-28 melanoma = test system: SK-MEL-28 melanoma
KM12 colon = test system: KM12 colon
CCRF-CEM leukemia = test system: CCRF-CEM leukemia
IGROV1 ovarian = test system: IGROV1 ovarian

Structure (SMILES): CN1CCc2cc3c(cc2C1O)OCO3 (configuration not stated)
- GI50 (HOP-92 NSCLC): > 100 µM
- TGI (HOP-92 NSCLC): > 100 µM
- GI50 (BT-549 breast): > 100 µM
- TGI (BT-549 breast): > 100 µM
- GI50 (SNB-75 CNS): > 100 µM
- TGI (SNB-75 CNS): > 100 µM
- GI50 (HL-60(TB) leukemia): > 100 µM
- TGI (HL-60(TB) leukemia): > 100 µM
- GI50 (SF-539 CNS): > 100 µM
- TGI (SF-539 CNS): > 100 µM
- GI50 (HS 578T breast): > 100 µM
- TGI (HS 578T breast): > 100 µM
- GI50 (HOP-62 NSCLC): > 100 µM
- TGI (HOP-62 NSCLC): > 100 µM
- GI50 (SN12C renal): > 100 µM
- TGI (SN12C renal): > 100 µM
- GI50 (DU-145 prostate): > 100 µM
- TGI (DU-145 prostate): > 100 µM
- GI50 (EKVX NSCLC): > 100 µM
- TGI (EKVX NSCLC): > 100 µM
- GI50 (MALME-3M melanoma): > 100 µM
- TGI (MALME-3M melanoma): > 100 µM
- GI50 (HCC-2998 colon): > 100 µM
- TGI (HCC-2998 colon): > 100 µM
- GI50 (MDA-MB-231 breast): > 100 µM
- TGI (MDA-MB-231 breast): > 100 µM
- GI50 (TK-10 renal): > 100 µM
- TGI (TK-10 renal): > 100 µM
- GI50 (T-47D breast): > 100 µM
- TGI (T-47D breast): > 100 µM
- GI50 (SF-268 CNS): > 100 µM
- TGI (SF-268 CNS): > 100 µM
- GI50 (SW-620 colon): > 100 µM
- TGI (SW-620 colon): > 100 µM
- GI50 (NCI-H226 lung): > 100 µM
- TGI (NCI-H226 lung): > 100 µM
- GI50 (MDA-MB-468 breast): > 100 µM
- TGI (MDA-MB-468 breast): > 100 µM
- GI50 (UACC-62 melanoma): > 100 µM
- TGI (UACC-62 melanoma): > 100 µM
- GI50 (A498 renal): > 100 µM
- TGI (A498 renal): > 100 µM
- GI50 (OVCAR-3 ovarian): > 100 µM
- TGI (OVCAR-3 ovarian): > 100 µM
- GI50 (OVCAR-8 ovarian): > 100 µM
- TGI (OVCAR-8 ovarian): > 100 µM
- GI50 (CAKI-1 renal): > 100 µM
- TGI (CAKI-1 renal): > 100 µM
- GI50 (RXF 393 renal): > 100 µM
- TGI (RXF 393 renal): > 100 µM
- GI50 (ACHN renal): > 100 µM
- TGI (ACHN renal): > 100 µM
- GI50 (NCI-H322M lung): > 100 µM
- TGI (NCI-H322M lung): > 100 µM
- GI50 (HT29 colon): > 100 µM
- TGI (HT29 colon): > 100 µM
- GI50 (MOLT-4 leukemia): > 100 µM
- TGI (MOLT-4 leukemia): > 100 µM
- GI50 (SK-MEL-5 melanoma): > 100 µM
- TGI (SK-MEL-5 melanoma): > 100 µM
- GI50 (NCI-H522 lung): > 100 µM
- TGI (NCI-H522 lung): > 100 µM
- GI50 (PC-3 prostate): > 100 µM
- TGI (PC-3 prostate): > 100 µM
- GI50 (SR leukemia): > 100 µM
- TGI (SR leukemia): > 100 µM
- GI50 (OVCAR-4 ovarian): > 100 µM
- TGI (OVCAR-4 ovarian): > 100 µM
- GI50 (MCF7 breast): > 100 µM
- TGI (MCF7 breast): > 100 µM
- GI50 (U251 glioblastoma): > 100 µM
- TGI (U251 glioblastoma): > 100 µM
- GI50 (SK-OV-3 ovarian): > 100 µM
- TGI (SK-OV-3 ovarian): > 100 µM
- GI50 (HCT-15 colon): > 100 µM
- TGI (HCT-15 colon): > 100 µM
- GI50 (M14 melanoma): > 100 µM
- TGI (M14 melanoma): > 100 µM
- GI50 (MDA-MB-435 melanoma): > 100 µM
- TGI (MDA-MB-435 melanoma): > 100 µM
- GI50 (786-0 renal): > 100 µM
- TGI (786-0 renal): > 100 µM
- GI50 (NCI/ADR-RES ovarian): > 100 µM
- TGI (NCI/ADR-RES ovarian): > 100 µM
- GI50 (NCI-H460 NSCLC): > 100 µM
- TGI (NCI-H460 NSCLC): > 100 µM
- GI50 (A549 NSCLC): > 100 µM
- TGI (A549 NSCLC): > 100 µM
- GI50 (OVCAR-5 ovarian): > 100 µM
- TGI (OVCAR-5 ovarian): > 100 µM
- GI50 (SF-295 CNS): > 100 µM
- TGI (SF-295 CNS): > 100 µM
- GI50 (UACC-257 melanoma): > 100 µM
- TGI (UACC-257 melanoma): > 100 µM
- GI50 (COLO 205 colon): > 100 µM
- TGI (COLO 205 colon): > 100 µM
- GI50 (SNB-19 CNS): > 100 µM
- TGI (SNB-19 CNS): > 100 µM
- GI50 (RPMI-8226 leukemia): > 100 µM
- TGI (RPMI-8226 leukemia): > 100 µM
- GI50 (NCI-H23 lung): > 100 µM
- TGI (NCI-H23 lung): > 100 µM
- GI50 (SK-MEL-2 melanoma): > 100 µM
- TGI (SK-MEL-2 melanoma): > 100 µM
- GI50 (SK-MEL-28 melanoma): > 100 µM
- TGI (SK-MEL-28 melanoma): > 100 µM
- GI50 (KM12 colon): > 100 µM
- TGI (KM12 colon): > 100 µM
- GI50 (CCRF-CEM leukemia): > 100 µM
- TGI (CCRF-CEM leukemia): > 100 µM
- GI50 (IGROV1 ovarian): > 100 µM
- TGI (IGROV1 ovarian): > 100 µM
